This note sets out measurements from ChEMBL document CHEMBL4507319 (2021).

The target in test [1] is Protein-tyrosine kinase 6 (Homo sapiens) (UniProt Q13882). The following applies: Compound concentration 1000.0 nM.
The target of test [2] is STE20-like serine/threonine-protein kinase (Homo sapiens) (UniProt Q9H2G2). The settings on record: Compound concentration 1000.0 nM.
Test [3] deals with T1, Calcium/calmodulin-dependent protein kinase type IV (Homo sapiens) (UniProt Q16566).
T1 sequence (whole entry): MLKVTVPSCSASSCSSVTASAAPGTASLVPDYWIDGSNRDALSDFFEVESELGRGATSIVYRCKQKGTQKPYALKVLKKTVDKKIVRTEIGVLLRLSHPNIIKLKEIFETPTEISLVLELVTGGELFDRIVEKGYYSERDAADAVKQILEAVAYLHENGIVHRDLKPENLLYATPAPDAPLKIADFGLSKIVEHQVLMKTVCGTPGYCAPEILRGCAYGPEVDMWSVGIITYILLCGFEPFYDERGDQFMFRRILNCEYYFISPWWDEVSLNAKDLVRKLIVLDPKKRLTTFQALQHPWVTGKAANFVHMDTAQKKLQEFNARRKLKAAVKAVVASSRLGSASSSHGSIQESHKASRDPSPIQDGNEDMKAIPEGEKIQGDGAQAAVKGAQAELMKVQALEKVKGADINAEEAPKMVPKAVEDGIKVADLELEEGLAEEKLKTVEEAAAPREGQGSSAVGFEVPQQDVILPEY
The settings on record: Compound concentration 1000.0 nM.

Test [4] has as its system Receptor-type tyrosine-protein kinase FLT3 (Homo sapiens), P36888 [UNDEFINED MUTATION]. The following applies: Compound concentration 1000.0 nM.
In test [5] the target is Cyclin-dependent kinase 4 (Homo sapiens) (UniProt P11802). The following applies: Compound concentration 1000.0 nM.
Chain of Cyclin-dependent kinase 4 (Homo sapiens) (P11802 whole entry): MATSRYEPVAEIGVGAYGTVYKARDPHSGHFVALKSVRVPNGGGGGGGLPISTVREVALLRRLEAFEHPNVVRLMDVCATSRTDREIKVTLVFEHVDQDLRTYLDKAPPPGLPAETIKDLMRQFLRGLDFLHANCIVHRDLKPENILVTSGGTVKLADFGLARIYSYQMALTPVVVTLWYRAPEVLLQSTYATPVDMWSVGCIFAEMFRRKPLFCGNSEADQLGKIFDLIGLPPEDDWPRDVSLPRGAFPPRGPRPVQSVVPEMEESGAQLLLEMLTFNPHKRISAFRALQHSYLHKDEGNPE
For test [6], the target named is T2, Mitogen-activated protein kinase kinase kinase 2 (Homo sapiens) (UniProt Q9Y2U5).
T2 sequence (whole entry): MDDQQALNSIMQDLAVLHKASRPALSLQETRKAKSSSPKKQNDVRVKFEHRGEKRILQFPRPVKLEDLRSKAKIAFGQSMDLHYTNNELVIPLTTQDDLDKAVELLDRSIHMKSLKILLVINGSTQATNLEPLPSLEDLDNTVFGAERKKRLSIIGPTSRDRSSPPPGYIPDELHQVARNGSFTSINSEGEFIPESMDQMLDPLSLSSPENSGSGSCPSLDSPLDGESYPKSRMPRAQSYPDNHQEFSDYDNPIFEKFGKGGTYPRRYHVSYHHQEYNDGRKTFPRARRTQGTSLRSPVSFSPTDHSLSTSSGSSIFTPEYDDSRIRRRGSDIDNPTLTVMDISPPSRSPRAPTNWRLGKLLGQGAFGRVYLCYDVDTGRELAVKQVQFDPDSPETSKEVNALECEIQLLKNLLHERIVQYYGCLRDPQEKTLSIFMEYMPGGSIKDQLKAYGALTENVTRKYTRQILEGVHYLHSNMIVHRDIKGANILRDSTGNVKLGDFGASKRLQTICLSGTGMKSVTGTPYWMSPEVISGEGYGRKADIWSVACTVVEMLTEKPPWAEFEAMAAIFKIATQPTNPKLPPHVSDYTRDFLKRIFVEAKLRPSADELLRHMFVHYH
The settings on record: Compound concentration 1000.0 nM.

Test [7] addresses T3, Tyrosine-protein kinase TXK (Homo sapiens) (UniProt P42681).
T3 sequence (whole entry): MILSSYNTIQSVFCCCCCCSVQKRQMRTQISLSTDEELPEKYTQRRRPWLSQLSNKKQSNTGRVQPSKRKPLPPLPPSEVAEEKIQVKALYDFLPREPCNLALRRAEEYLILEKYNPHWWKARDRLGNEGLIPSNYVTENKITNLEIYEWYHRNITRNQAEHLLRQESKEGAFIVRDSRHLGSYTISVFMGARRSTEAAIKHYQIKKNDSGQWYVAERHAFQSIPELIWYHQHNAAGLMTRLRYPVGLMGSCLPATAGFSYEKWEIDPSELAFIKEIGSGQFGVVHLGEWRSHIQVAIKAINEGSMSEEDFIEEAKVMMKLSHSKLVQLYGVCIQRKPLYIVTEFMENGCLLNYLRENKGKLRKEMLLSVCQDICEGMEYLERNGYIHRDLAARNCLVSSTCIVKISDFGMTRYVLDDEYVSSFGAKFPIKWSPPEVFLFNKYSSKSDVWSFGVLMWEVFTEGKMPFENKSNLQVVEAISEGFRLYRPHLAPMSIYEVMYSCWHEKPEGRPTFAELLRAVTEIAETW
The settings on record: Compound concentration 1000.0 nM.

The subject of test [8] is Tyrosine-protein kinase ABL1 (Homo sapiens), P00519 [F317I]. The settings on record: Compound concentration 1000.0 nM.
For test [9], the target named is Ribosomal protein S6 kinase alpha-1 (Homo sapiens, UniProt Q15418). The settings on record: Compound concentration 1000.0 nM.
Chain of Ribosomal protein S6 kinase alpha-1 (Q15418 whole entry): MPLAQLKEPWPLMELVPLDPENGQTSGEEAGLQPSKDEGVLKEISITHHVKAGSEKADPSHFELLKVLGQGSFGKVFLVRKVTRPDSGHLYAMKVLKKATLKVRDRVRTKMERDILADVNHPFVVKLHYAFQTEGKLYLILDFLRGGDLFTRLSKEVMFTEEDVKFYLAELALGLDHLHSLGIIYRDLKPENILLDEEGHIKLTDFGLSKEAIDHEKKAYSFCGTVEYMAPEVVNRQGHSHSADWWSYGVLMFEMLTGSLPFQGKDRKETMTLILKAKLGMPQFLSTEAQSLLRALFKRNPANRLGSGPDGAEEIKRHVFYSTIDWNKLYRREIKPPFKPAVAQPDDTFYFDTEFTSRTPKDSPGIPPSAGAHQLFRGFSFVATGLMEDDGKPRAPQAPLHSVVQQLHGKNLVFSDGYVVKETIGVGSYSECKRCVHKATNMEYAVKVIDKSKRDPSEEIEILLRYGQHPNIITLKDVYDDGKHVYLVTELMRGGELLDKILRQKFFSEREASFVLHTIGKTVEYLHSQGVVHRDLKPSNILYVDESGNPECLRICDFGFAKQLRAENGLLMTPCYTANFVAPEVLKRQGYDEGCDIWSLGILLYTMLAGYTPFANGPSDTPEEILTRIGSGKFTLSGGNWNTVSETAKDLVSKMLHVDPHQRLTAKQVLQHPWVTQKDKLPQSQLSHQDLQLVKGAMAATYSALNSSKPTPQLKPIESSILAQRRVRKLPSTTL
In test [10] the target is Muscarinic acetylcholine receptor M3 (Homo sapiens) (UniProt P20309). The settings on record: Compound concentration 10.0 uM.
Test [11] has as its target 5-hydroxytryptamine receptor 1B (Homo sapiens) (UniProt P28222). The settings on record: Compound concentration 10.0 uM.
The target of test [12] is Serine/threonine-protein kinase LATS1 (Homo sapiens) (UniProt O95835). The following applies: Compound concentration 1000.0 nM.
Test [13] concerns the target Sodium-dependent serotonin transporter (Homo sapiens) (UniProt P31645). The following applies: Compound concentration 10.0 uM.
Test [14] addresses Mitogen-activated protein kinase 3 (Homo sapiens) (UniProt P27361). The following applies: Compound concentration 1000.0 nM.
Test [15] concerns the target T4, NUAK family SNF1-like kinase 2 (Homo sapiens) (UniProt Q9H093).
T4 sequence (whole entry): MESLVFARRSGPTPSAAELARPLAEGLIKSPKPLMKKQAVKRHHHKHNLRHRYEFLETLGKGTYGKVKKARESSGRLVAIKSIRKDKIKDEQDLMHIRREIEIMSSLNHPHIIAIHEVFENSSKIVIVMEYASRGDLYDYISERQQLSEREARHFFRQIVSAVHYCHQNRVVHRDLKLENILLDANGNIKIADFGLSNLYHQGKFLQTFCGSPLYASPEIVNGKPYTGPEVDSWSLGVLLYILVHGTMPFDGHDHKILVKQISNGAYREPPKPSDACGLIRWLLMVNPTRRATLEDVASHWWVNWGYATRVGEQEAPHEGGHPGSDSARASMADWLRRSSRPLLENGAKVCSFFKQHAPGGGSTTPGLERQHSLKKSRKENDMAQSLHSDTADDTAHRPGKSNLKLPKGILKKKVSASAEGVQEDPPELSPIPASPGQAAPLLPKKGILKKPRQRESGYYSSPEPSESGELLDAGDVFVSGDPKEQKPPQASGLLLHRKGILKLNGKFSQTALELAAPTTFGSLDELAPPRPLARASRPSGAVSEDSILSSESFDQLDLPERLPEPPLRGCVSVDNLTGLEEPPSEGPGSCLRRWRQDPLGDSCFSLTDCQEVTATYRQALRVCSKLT
The settings on record: Compound concentration 1000.0 nM.

For orientation: inhibition means the change of the read-out against control, counted positive when it falls.

Structures are written as SMILES.

Chain of Mitogen-activated protein kinase 3 (Homo sapiens) (P27361 whole entry): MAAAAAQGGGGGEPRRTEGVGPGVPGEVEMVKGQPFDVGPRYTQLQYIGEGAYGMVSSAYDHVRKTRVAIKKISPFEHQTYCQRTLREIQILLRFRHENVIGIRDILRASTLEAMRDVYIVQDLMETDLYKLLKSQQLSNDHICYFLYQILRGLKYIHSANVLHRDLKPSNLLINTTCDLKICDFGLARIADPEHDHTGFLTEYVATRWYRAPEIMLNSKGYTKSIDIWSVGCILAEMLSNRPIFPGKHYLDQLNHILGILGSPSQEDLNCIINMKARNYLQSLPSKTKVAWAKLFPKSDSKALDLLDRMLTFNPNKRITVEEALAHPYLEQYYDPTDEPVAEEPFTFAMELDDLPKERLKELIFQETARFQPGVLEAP
Chain of 5-hydroxytryptamine receptor 1B (Homo sapiens) (P28222 whole entry): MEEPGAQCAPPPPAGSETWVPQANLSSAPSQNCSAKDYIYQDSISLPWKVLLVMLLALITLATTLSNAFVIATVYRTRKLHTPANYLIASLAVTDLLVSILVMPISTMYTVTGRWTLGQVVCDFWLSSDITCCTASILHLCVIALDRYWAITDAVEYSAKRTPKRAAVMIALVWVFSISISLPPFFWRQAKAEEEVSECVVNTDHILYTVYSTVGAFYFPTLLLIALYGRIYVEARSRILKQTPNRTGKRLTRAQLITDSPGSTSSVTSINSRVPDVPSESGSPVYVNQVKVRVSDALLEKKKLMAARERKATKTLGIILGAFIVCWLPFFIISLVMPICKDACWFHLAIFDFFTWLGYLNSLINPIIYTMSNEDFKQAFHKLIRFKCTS
Chain of STE20-like serine/threonine-protein kinase (Homo sapiens) (Q9H2G2 whole entry, looked up): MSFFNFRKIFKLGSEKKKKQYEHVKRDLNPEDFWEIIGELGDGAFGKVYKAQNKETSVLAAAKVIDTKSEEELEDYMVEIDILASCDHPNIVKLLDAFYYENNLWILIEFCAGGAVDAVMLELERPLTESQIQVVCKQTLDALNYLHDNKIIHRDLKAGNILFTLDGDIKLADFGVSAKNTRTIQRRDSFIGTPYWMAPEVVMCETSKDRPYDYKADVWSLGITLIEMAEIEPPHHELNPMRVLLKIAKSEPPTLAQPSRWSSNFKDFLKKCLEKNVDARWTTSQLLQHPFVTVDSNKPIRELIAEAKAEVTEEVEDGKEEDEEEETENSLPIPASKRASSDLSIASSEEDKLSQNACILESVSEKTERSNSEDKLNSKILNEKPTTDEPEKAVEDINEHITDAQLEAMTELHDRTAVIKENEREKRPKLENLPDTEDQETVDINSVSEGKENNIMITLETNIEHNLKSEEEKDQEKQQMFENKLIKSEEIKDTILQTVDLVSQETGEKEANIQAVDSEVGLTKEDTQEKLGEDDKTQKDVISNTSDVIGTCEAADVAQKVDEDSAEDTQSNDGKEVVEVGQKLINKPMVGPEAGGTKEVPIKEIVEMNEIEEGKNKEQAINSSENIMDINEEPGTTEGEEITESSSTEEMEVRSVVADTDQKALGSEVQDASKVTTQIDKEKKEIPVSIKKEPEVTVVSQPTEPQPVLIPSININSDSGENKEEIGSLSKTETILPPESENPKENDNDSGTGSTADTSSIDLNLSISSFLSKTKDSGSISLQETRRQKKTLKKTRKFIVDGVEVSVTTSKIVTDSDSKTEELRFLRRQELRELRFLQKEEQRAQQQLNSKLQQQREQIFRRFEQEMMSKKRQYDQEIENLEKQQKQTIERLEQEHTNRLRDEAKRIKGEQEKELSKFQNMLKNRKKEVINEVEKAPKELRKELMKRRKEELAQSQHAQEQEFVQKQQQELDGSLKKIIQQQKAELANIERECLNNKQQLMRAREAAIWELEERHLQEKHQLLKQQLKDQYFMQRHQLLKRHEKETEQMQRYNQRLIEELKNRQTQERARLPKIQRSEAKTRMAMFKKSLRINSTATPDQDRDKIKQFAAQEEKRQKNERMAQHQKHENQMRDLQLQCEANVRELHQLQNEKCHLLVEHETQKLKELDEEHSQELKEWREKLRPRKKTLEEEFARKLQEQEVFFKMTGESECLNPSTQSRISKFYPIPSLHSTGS
Chain of Tyrosine-protein kinase ABL1 (Homo sapiens), P00519 [F317I] (P00519 whole entry F317I): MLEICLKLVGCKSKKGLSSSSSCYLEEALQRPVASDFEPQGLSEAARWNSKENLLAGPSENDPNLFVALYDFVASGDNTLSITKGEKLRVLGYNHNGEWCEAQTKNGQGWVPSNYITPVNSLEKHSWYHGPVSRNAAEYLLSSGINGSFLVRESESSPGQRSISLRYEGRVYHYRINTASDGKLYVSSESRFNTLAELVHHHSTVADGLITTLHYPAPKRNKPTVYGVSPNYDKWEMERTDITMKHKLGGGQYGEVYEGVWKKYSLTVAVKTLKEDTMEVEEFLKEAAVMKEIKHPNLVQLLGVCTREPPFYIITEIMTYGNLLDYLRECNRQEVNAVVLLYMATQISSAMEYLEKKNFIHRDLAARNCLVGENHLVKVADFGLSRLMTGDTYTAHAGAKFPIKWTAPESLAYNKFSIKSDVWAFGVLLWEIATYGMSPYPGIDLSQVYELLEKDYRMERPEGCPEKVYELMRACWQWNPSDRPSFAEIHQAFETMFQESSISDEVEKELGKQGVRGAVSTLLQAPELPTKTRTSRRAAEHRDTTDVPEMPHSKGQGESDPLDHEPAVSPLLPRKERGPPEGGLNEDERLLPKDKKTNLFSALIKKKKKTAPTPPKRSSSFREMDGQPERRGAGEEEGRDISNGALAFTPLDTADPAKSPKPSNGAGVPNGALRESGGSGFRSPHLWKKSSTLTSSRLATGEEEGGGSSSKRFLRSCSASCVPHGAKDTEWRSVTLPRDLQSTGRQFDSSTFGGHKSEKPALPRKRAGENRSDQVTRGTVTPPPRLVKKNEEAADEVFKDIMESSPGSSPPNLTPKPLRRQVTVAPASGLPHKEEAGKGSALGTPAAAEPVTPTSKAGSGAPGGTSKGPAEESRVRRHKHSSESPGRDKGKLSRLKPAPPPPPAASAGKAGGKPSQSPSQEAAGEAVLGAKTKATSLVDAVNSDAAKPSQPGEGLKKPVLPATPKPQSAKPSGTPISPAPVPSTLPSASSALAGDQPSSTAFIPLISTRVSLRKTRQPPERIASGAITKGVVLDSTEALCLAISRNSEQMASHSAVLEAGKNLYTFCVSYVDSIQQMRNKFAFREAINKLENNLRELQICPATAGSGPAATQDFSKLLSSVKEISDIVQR
Chain of Sodium-dependent serotonin transporter (Homo sapiens) (P31645 whole entry, looked up): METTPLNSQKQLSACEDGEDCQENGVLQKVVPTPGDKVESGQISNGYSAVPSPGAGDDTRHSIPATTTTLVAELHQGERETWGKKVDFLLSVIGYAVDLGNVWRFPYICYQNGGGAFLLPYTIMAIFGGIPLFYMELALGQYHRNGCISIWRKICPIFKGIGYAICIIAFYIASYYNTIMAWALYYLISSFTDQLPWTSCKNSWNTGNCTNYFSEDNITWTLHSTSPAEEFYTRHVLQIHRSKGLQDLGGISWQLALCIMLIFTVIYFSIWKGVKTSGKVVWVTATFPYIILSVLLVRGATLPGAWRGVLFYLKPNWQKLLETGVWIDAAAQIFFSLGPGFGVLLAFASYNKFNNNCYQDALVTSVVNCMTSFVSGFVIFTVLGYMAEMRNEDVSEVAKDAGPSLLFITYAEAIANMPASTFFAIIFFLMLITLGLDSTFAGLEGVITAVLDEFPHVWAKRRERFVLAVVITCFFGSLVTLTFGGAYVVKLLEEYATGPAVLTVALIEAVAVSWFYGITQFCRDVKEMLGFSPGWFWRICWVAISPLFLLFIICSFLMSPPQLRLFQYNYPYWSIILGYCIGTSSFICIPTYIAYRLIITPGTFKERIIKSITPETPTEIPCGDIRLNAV

For `CC1=C(C#N)C(c2ccc3c(c2)c(NC(=O)c2ccccc2C)nn3C)C(C#N)=C(C)N1` [BAY-974], the residual activity in test [1] is 100%; in test [2] it was 88%; in test [3], 70%; in test [4], 76%; in test [5] it was 79%; in test [6], 100%. For the same compound, the residual activity in test [7] was 100%; in test [8], 100%; in test [9], 100%; in [12], 85%; in test [14] it was 94%; in test [15], 81%. The inhibition is 9.49% in test [10], 4.12% in test [11] and -6.29% in test [13].
Turning to `CCc1ccccc1C(=O)Nc1n[nH]c2c(C)c(F)c(C3C(C#N)=C(C)N(C)C(C)=C3C#N)cc12` [BAY-3827], the residual activity is 100% in [1]; 100% in test [2]; 56% in [3]; 12% in test [4]; 75% in test [5]; 100% in test [6]. The residual activity in test [7] was 84%; in test [8], 100%; in test [9], 100%; in [12] it was 100%; in test [14], 95%; in [15], 40%. The inhibition was 22.5% in [10], 9.48% in test [11] and -6.24% in [13].
